Earlier results as cited in patent publication US10583082B2, “Composition comprising at least two dry powders obtained by spray drying to increase the stability of the formulation” (Eratech S.R.L., priority 2013, dated 2020).

details: from US 2001/0036481 A1

Point of comparison: CCCCCCCCCCCCCCCC(=O)OC[C@H](COP(=O)([O-])OCC[N+](C)(C)C)OC(=O)CCCCCCCCCCCCCCC [DPPC, dipalmitoylphosphatidylcholine], “phospholipid transition temperature (Tg) with humidity” value 41 °C. Against it:
- CCCCCCCCCCCCCCCCCC(=O)OC[C@H](COP(=O)([O-])OCC[N+](C)(C)C)OC(=O)CCCCCCCCCCCCCCCCC [DSPC, distearoylphosphatidylcholine] — higher, 55 °C
- CCCCCCCCCCCCCCCC(=O)OCC(COP(=O)(O)OCCN)OC(=O)CCCCCCCCCCCCCCC (stereo not drawn) [DPPE, dipalmitoylphosphatidylethanolamine] — higher, 63 °C
